What is called IC50 is the concentration that gives 50% inhibition.

One test relates to Human Jurkat T-cells (clone N). Kind of test: Jurkat T-cell activation (anti-TCR, CD69 upregulation).
Conditions: not given
The class given is cell-based. The protocol: The screening process took place over three days.
On the first day of the screen, cultured cells were spun down on a centrifuge (1000 rpm, 5 minutes) and resuspended at 3.0×10^5 cells/ml in RPMI+5% FBS. On the second day of the screen, cells were spun down at 1000 rpm for 5 minutes and resuspended in RPMI+5% FBS at 1.3×10^5 cells/ml. 85 μl of this cell suspension were added to the wells of U-bottom 96 well plates (Corning) 85 μl of compound or diluted RPMI+5% FBS (as a control) only was added to each well and incubated at 37° C. for 1 hour. The cells were then stimulated with anti-TCR (C305) at: 500 ng/ml by adding a 8× solution in 25 μl to the plated cells. The cells were then incubated at 37° C. for 20 hrs.
On the third day of the screen, the plates were spun at 2500 RPM for 1 minute on a Beckman GS-6R centrifuge, and the medium was then removed. 50 μl staining solution (1:100 dilution of anti-CD69-APC antibody (Becton Dickenson) in PBS+2% FBS) was then added to each well, followed by incubation of the plates 4 degrees for 20 minutes in the dark. 150 μl of wash buffer (PBS+2% FBS) was then added to each well, and the plates were spun at 3000 RPM for 1 minute. The supernatant was again removed, and the pellet was resuspended by vortexing gently. 75 μl of PBS+2% FBS +Cytofix (1:4 dilution) was then added, the plates gently vortexed and wrap in aluminum foil. Cells from the plates were read using a flow cytometer coupled to an automated liquid handling system.
Varied concentrations of compound were compared to solvent only to determine the inhibition of T-cell activation IC50 of each compound.
`ON=C(c1ccccc1)c1cccc(Nc2ncc(F)c(Nc3cccc(C(=NO)c4ccccc4)c3)n2)c1` [Compound R950380] showed an IC50 of 8.69 µM.

Compound `Cc1cc(Nc2nc(Nc3cccc(OCC(=O)N4CCOCC4)c3)ncc2F)cc(Cl)c1O` [Compound R940265] gave an IC50 of 5.56 µM.

Consider `COC(=O)COc1ccc(Nc2ncc(F)c(Nc3ccc4c(cnn4C)c3)n2)cc1` [Compound R935209], for which the IC50 was over 10 µM.

`CNC(=O)COc1cccc(Nc2ncc(F)c(Nc3ccc(Cl)c(-c4nc5ccccc5s4)c3)n2)c1` [Compound R926900] showed an IC50 of over 10 µM.

Take `Cc1cc(Nc2ncc(F)c(Nc3ccc4cn[nH]c4c3)n2)cc(Cl)c1O` [Compound R935264]: the IC50 worked out at 1.41 µM.

As to `CNC(=O)COc1cccc(Nc2ncc(F)c(Nc3cccc(-c4nn[nH]n4)c3)n2)c1` [Compound R926855], the IC50 is over 10 µM.

Take `Cc1cnc(Nc2ccc(OCc3nnn(C)n3)cc2)nc1Nc1cccc(O)c1` [Compound R920893]: 1.4 µM corresponded to half-maximal inhibition (IC50).

`COc1ccc(Nc2nc(Nc3cc(C)c(O)c(Cl)c3)ncc2F)cc1CN1CCOCC1` [Compound R940316] displayed an IC50 of 4.28 µM.

`CNC(=O)COc1cccc(Nc2ncc(F)c(Nc3ccc4c(c3)C=CCC4)n2)c1` [Compound R926944] gave an IC50 of 3.43 µM.

Turning to `CC(C)(CO)NC(=O)COc1cccc(Nc2ncc(F)c(Nc3ccc4c(c3)OCCO4)n2)c1` [Compound R926764], the IC50 amounted to 2.17 µM.

On to `CNC(=O)COc1cccc(Nc2ncc(F)c(Nc3cccc(N)c3)n2)c1` [Compound R950263], for which the IC50 came to 1.91 µM.

As to `Cn1nnnc1COc1ccc(Nc2ncc(F)c(Nc3cccc(O)c3)n2)cc1` [Compound R920861], the IC50 was 3.28 µM.

As for `O=[N+]([O-])c1ccc(NCCO)c(Nc2ccnc(Nc3cc([N+](=O)[O-])ccc3NCCO)n2)c1` [Compound R950156], the IC50 is over 10 µM.

In turn, `CNC(=O)COc1cccc(Nc2ncc(F)c(Nc3cccc(C(=NO)c4ccccc4)c3)n2)c1` [Compound R950374] yielded an IC50 of 1.65 µM.

In the case of `Cc1cc(Nc2nc(Nc3cccc(OCC(=O)N4CCOCC4)c3)ncc2F)cc(C)c1O` [Compound R940254], the IC50 was 3.76 µM.

In turn, `CCOC(=O)C(C)(C)c1ccc(Nc2nc(Nc3ccc(OC(C)C)cc3)ncc2F)cc1` [Compound R935167] showed an IC50 of over 10 µM.

The compound `OCCn1ncc2cc(Nc3ncc(F)c(Nc4cccc(O)c4)n3)ccc21` [Compound R935256] yielded an IC50 of 0.92 µM.

Consider `CCOC(=O)COc1cccc(Nc2ncc(F)c(Nc3cc(OC)cc(OC)c3)n2)c1` [Compound R926795], for which the IC50 was over 10 µM.

Compound `Fc1cnc(Nc2ccc(OCCN3CCOCC3)cc2)nc1Nc1ccc2c(c1)OCCO2` [Compound R926709] yielded an IC50 of 2.47 µM.

In the case of `Fc1cnc(Nc2ccc3[nH]ncc3c2)nc1Nc1ccc2c(c1)OCCO2` [Compound R935198], 1.45 µM corresponded to half-maximal inhibition (IC50).

In turn, `NC(=O)COc1ccc(Nc2nc(Nc3cccc(O)c3)ncc2F)cc1` [Compound R945063] gave an IC50 of 6.04 µM.

Compound `CNC(=O)CCn1ncc2cc(Nc3ncc(F)c(Nc4cccc(O)c4)n3)ccc21` [Compound R935305] had an IC50 of 1.83 µM.

For the compound `COC(=O)c1ccc(Cn2ncc3ccc(Nc4ncc(F)c(Nc5ccc6c(c5)OCCO6)n4)cc32)c(OC)c1` [Compound R935320], the IC50 was over 10 µM.

For `COC(=O)COc1cc(Nc2ncc(F)c(Nc3cccc(O)c3)n2)cc(OCC(=O)OC)c1` [Compound R926926], inhibition was half-maximal at 13.1 µM (IC50).

On to `CCOC(=O)COc1cccc(Nc2ncc(F)c(Nc3ccc(O)c(C(=O)O)c3)n2)c1` [Compound R950290], for which the IC50 was over 10 µM.

Consider `O=C(c1cc2cc(Nc3ncc(F)c(Nc4ccc5c(c4)OCCO5)n3)ccc2o1)N1CCCNCC1` [Compound R926767], for which the IC50 was determined as 2.67 µM.

Consider `CNC(=O)C(C)(C)Oc1cccc(Nc2ncc(F)c(Nc3ccc4c(c3)OCCO4)n2)c1` [Compound R926915], for which the IC50 is over 10 µM.

The compound `Cn1cc2cc(Nc3ncc(F)c(Nc4ccc5c(c4)OCCO5)n3)ccc2n1` [Compound R935300] gave an IC50 of 3.38 µM.

For `CSc1nc2ccc(Nc3ncc(F)c(Nc4ccc5nc(SC)sc5c4)n3)cc2s1` [Compound R950202], the IC50 was over 10 µM.

For `COC(=O)COc1cccc(Nc2ncc(F)c(Nc3cccc(OCC(=O)OC)c3)n2)c1` [Compound R926255], the IC50 was over 10 µM.

For the compound `CNC(=O)COc1cccc(Nc2ncc(F)c(Nc3cccc(CN)c3)n2)c1` [Compound R940309], the IC50 is over 10 µM.

In turn, `Fc1cnc(Nc2ccc3cn[nH]c3c2)nc1Nc1ccc2cn[nH]c2c1` [Compound R935188] came in with an IC50 of 1.8 µM.

In turn, `COC(=O)c1ccc(Cn2cc3ccc(Nc4ncc(F)c(Nc5ccc(OC(C)C)cc5)n4)cc3n2)c(OC)c1` [Compound R935338] registered an IC50 of 5.89 µM.

With `CCOC(=O)C(C)(C)c1ccc(Nc2nc(Nc3ccc(OCC(=O)OC)cc3)ncc2F)cc1` [Compound R935157], the IC50 is over 10 µM.

With `CCOC(=O)C1CCN(C(=O)c2cccc(Nc3nc(Nc4cccc(OCC(=O)NC)c4)ncc3F)c2)CC1` [Compound R926941], the IC50 is over 10 µM.

In the case of `CS(=O)(=O)Nc1ccc(Nc2ncc(F)c(Nc3ccc(NS(C)(=O)=O)cc3)n2)cc1` [Compound R950083], the IC50 is over 10 µM.

`CCOC(=O)COc1ccc(Nc2nc(Nc3ccc(OCC(=O)OCC)cc3)c(NC(=O)NC3CCCC3)c(C(=O)OCC)n2)cc1` [Compound R926588] returned a concentration for half-maximal inhibition (IC50) of over 10 µM.

Compound `Fc1cnc(NCc2ccc3c(c2)OCO3)nc1NCc1ccc2c(c1)OCO2` [Compound R925770] yielded an IC50 of over 10 µM.

The compound `COC(=O)COc1cccc(Nc2ncc(F)c(Nc3ccc4[nH]ncc4c3)n2)c1` [Compound R935269] returned an IC50 of 7.58 µM.

`Cc1cnc(Nc2ccc(OCc3nnnn3C)cc2)nc1Nc1cccc(O)c1` [Compound R920894] displayed an IC50 of 2.02 µM.

`COC(=O)COc1cccc(Nc2ncc(F)c(Nc3cccc(O)c3)n2)c1` [Compound R945118] showed an IC50 of 9.49 µM.

As to `O=C(COc1cccc(Nc2ncc(F)c(Nc3ccc4c(c3)NCCO4)n2)c1)NCCCO` [Compound R909252], it took 0.655 µM to reach half-maximal inhibition (IC50).

Still in this test, the particulars now being: Homo sapiens.
`O=[N+]([O-])c1ccc(O)c(Nc2ccnc(Nc3cc([N+](=O)[O-])ccc3O)n2)c1` [Compound R950155] showed an IC50 of over 10 µM.

For `O=[N+]([O-])c1cc(Nc2ccnc(Nc3ccc(Cl)c([N+](=O)[O-])c3)n2)ccc1Cl` [Compound R950154], the IC50 is over 10 µM.

Compound `O=[N+]([O-])c1cc(Nc2ccnc(Nc3ccc(F)c([N+](=O)[O-])c3)n2)ccc1F` [Compound R950152] registered an IC50 of 2.65 µM.

The test is the same for the next values; noted with them: Homo sapiens, Jurkat.
As to `O=C(O)c1ccc(Nc2ncc(F)c(Nc3ccc(C(=O)O)cc3)n2)cc1` [Compound R945037], the IC50 was over 10 µM.

`c1cc2c(cc1Nc1cc(Nc3ccc4c(c3)OCCO4)nc(Nc3ccc4c(c3)OCCO4)n1)OCCO2` [Compound R926516] showed an IC50 of 17.8 µM.

Regarding `Oc1cccc(Nc2ncc(F)c(Nc3cccc(OC(F)(F)F)c3)n2)c1` [Compound R926885], the IC50 is over 10 µM.

The compound `Cc1ccc(Nc2ccnc(Nc3ccc(C)c(N)c3)n2)cc1N` [Compound R950130] displayed an IC50 of over 10 µM.

In the case of `Fc1cnc(Nc2cccc(Cl)c2)nc1Nc1cccc(Cl)c1` [Compound R926209], the IC50 is over 10 µM.

The compound `COc1cc(Nc2ncc(F)c(Nc3cccc(O)c3)n2)cc(OC)c1OC` [Compound R926761] returned an IC50 of 0.694 µM.

`Oc1cccc(Nc2cc(Nc3cccc(O)c3)nc(Nc3cccc(O)c3)n2)c1` [Compound R926409] registered an IC50 of 3.54 µM.

Regarding `CC(C)Oc1ccc(Nc2ncc(F)c(Nc3ccc(C(C)(C)CO)cc3)n2)cc1` [Compound R935168], the IC50 was found to be 3.71 µM.

Compound `CCOc1ccc(Nc2ccnc(Nc3ccc(OCC)c(N)c3)n2)cc1N` [Compound R950142] displayed an IC50 of 29.1 µM.

In turn, `COc1ccc(Nc2nc(Nc3cccc(C(C)(C)C)c3)ncc2F)cc1OC` [Compound R940260] displayed an IC50 of over 10 µM.

Take `COc1ccc(CNc2ncc(F)c(Nc3ccc4c(c3)OCCO4)n2)cc1` [Compound R926230]: the IC50 is over 10 µM.

As for `CC(C)(C)OC(=O)Nc1cccc(Nc2ncc(F)c(Nc3cccc(NC(=O)OC(C)(C)C)c3)n2)c1` [Compound R950108], the IC50 is over 10 µM.

Turning to `CNC(=O)c1cc2cc(Nc3nc(Nc4ccc5c(c4)OCCO5)ncc3F)ccc2o1` [Compound R926491], the IC50 was determined as 2.73 µM.

Compound `OCCNc1ncc(F)c(Nc2ccc3c(c2)OCCO3)n1` [Compound R925746] yielded an IC50 of over 10 µM.

Take `COCCOc1cccc(Nc2ncc(F)c(Nc3cccc(OCCOC)c3)n2)c1` [Compound R935076]: the IC50 was over 10 µM.

With `Oc1ccc(Nc2ncc(F)c(Nc3ccc(O)cc3)n2)cc1` [Compound R926405], it took 7.62 µM to reach half-maximal inhibition (IC50).

The compound `Oc1cccc(Nc2nc(Nc3cccc(-c4cnco4)c3)ncc2F)c1` [Compound R926831] gave an IC50 of 1.27 µM.

In turn, `Nc1ccc(F)c(Nc2ncc(F)c(Nc3cc(N)ccc3F)n2)c1` [Compound R950158] had a concentration for half-maximal inhibition (IC50) of 21.4 µM.

The record behind these values is US8158621B2, “Methods of treating or preventing autoimmune diseases with 2,4-pyrimidinediamine compounds” (Rigel Pharmaceuticals, Inc., priority 2002, dated 2012).
